The values below are quoted from earlier work in patent US11730745B1, “Kit and new method of treatment for skin basal cell and squamous cell carcinoma” (priority 2022, dated 2023).

The data set deals with cancer. The conditions noted are these: additional treatment with Selenium.

As for `[Se]` [Selenium], the “Decrease of the frequency of cancer” value is reported as “more than 35%”.
